Reference: ChEMBL document CHEMBL1201862, “PubChem BioAssay data set” (2004)
Calls of active or inactive are those of the source.

Assays:
Vero [1] = assay: host cell cytotoxicity of antiviral hits, dose response, cytotoxicity control for West Nile virus antiviral project, secondary assay (AID 1650); format: functional; conditions: Chlorocebus sabaeus
[2] = THP-1 cell cytotoxicity, dose response, cytotoxicity control for non-replicating M. tuberculosis project (AID 489025); format: functional
[3] = Luminescence Cell-Based Dose Retest to Confirm Inhibitors of Cancer Stem Cells. [Related pubchem assays (depositor defined):AID2717, AID2721]; format: functional; conditions: Homo sapiens
[4] = HepG2 cell cytotoxicity, dose response, cytotoxicity control for non-replicating M. tuberculosis project (AID 489018); format: functional; conditions: Mycobacterium tuberculosis
CAAX prenyl protease 2 = CAAX prenyl protease 2 (Saccharomyces cerevisiae S288c, UniProt Q03530); format: biochemical
Chain of CAAX prenyl protease 2 (Q03530 whole entry): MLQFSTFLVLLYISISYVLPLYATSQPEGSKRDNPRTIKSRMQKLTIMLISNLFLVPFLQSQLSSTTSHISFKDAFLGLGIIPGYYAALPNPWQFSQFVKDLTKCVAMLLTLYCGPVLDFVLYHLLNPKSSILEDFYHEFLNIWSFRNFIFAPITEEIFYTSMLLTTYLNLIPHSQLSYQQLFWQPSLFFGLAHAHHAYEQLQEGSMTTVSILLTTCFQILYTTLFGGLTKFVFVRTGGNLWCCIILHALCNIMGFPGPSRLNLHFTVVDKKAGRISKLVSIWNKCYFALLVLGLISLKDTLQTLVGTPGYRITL

CAAX prenyl protease 1 = CAAX prenyl protease 1 (Saccharomyces cerevisiae S288c, UniProt P47154); assay: Ste24 protease inhibitors, dose response, biochemical, S. cerevisiae, plate reader, cherry-pick (AID 488815)
Chain of CAAX prenyl protease 1 (P47154 whole entry): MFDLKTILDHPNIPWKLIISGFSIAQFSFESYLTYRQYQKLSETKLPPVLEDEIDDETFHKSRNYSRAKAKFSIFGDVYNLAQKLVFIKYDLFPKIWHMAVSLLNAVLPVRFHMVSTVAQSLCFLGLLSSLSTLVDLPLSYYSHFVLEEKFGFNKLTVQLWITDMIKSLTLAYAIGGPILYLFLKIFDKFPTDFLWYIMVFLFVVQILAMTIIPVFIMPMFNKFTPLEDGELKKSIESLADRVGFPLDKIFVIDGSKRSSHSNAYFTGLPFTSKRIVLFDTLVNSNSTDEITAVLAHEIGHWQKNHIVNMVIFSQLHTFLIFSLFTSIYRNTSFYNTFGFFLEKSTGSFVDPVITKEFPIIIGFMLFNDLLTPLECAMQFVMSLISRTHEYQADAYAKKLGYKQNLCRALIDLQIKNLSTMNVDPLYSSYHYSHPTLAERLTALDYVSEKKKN

Vero [5] = assay: cells; format: functional, cell-based; conditions: Chlorocebus sabaeus
Vero [6] = assay: cells; format: functional; conditions: Chlorocebus sabaeus

CCN(CC)CCNC(=O)c1[nH]c2ccc(OCc3ccccc3)cc2c1C
active: CC50 (Vero [1]) 29.4 µM | CC50 [2] 25.6 µM | AC50 [3] 1.18 µM | CC50 [4] 17 µM | AC50 (CAAX prenyl protease 2) 14.1 µM | AC50 (CAAX prenyl protease 1) 4.58 µM | IC50 (Vero [5]) > 25 µM | CC50 (Vero [6]) > 25 µM
